Measured values taken from patent publication US6218112A, “Optimization of gene delivery and gene delivery system” (Cobra Therapeutics Limited, priority 1997, dated 2001).
* marks the point of attachment. Acm = CC(=O)NC*

Tests used:
Jurkat cell line = experiment: In vitro transfection with pRSVLuc (luciferase) condensed on peptides; type: cell-based; conditions: peptide 2 μg/μg plasmid DNA; for rank in order of relative transfection efficiency (most to least efficient): luciferase after 24 h, FIG. 7
Protocol: After incubation the cells are lysed and are assayed for gene expression. In the case of the luciferase reporter gene, luciferin and ATP are added to lysed cells and the light emitted is measured with a luminometer (see deWet et al., supra).
Cell lines such as Jurkat and K562 grow in suspension and can be transfected and the level of transgene expression (luciferase activity) determined b) the following method. Cells are harvested on the day of assay by centrifugation at 1200 rpm for 5 mins at room temperature. The cell pellet is resuspended in phosphate buffered saline and re-centrifuged. This operation is performed twice. […] The cells are then aliquoted into tubes and 0.75 ml of RPMI medium added, followed by 0.04-0.08 ml of 100 mM Chloroquine and finally 0.25 ml of DNA-complex solution. The transfection is then allowed to proceed by incubating the cells at 37° C. for 4 h. After this time the cells are harvested by centrifugation at 2000 rpm. The cells are then suspended in 1 ml of RPMI medium and re-centrifuged. Finally the cells are suspended in 0.5 ml RPMI medium containing 10% foetal bovine serum. Each 0.5 ml of transfected cell suspension is transferred to a well of a 12 well plastic culture plate containing 1.5 ml of RPMI 10% FBS. The original transfection tube is rinsed with a further 1 ml of medium and the wash transferred to the culture dish making a final volume of 3 ml. The culture plate is then incubated at 37° C. for 24-90 h in an atmosphere of 5% CO2. The contents of each well in the culture dish are transferred to centrifuge tubes and the cells collected by centrifugation at 13000 rpm. The pellet is resuspended in 0.12 ml of Lysis Buffer (100 mM sodium phosphate, pH 7.8; 8 mM magnesium chloride, 1 mM EDTA; 1% Triton X-100 and 15% glycerol) and agitated with a pipette. The lysate is centrifuged at 13000 rpm for 1 min and the supernatant collected. 80 μl of the supernatant are transferred to a luminometer tube. The luciferase activity is then assayed using a Berthold Lumat L9501 luminometer. The assay buffer used is Lysis Buffer containing 10 mM Luciferin and 100 mM ATP. Light produced by the luciferase is integrated over 4s and is described as relative light units (RLU). The data are converted to RLU/ml of lysate, RLU/cell or RLU/mg protein (protein concentration of the lysate having been determined in this case by the BioRAD Lowry assay.
In order to compare the relative efficiency of transfection of complexes composed of different NBC condensation peptides or poly-L-lysine, pRSVLuc DNA at a concentration of 100 μg/ml was condensed using peptide at a ratio of 2 μg/μg plasmid DNA as described herein with the following deviation: prior to addition to the cells (Jurkat cell line) the complexes were diluted to 20 μg/ml with 10% PEG 10 000; 37 mM sodium chloride; 25 mM sodium phosphate, pH 7.4. The cells were assayed for luciferase after 24 h.

[1] = test system: plasmid nucleic acid pRSVLuc; experiment: Surface plasmon resonance (BIAcore) binding kinetics of peptides/conjugates to immobilized biotinylated plasmid DNA; conditions: for ka: apparent rate constant for association; for ka / kd: SPR, PBS, 25° C.; for kd: apparent rate constant for dissociation
Protocol: In the examples described below, SPR was detected using the BIAcore system. This machine contained an SPR detector and an integrated microfluidic cartridge which is engineered such that an analyte solution (cationic peptide) is continuously passed over the sensor chip. The sensor chip consists of a glass plate coated with a thin film of gold covered in a layer of carboyxymethyl dextran. The chip used has a dextran layer to which streptavidin is covalently attached. The chip is prepared for use by adding biotinylated nucleic acid which will be bound to the chip via the streptavidin-biotin interaction, and the same chip is used in a series of experiments.
As material binds to the immobilized nucleic acid molecule on the sensor chip, the SPR angle of plane polarized light shining on the surface of the chip is monitored by the detector. Changes in angle are defined as resonance units (RU) and data are collected every second. Background effects are detected and automatically subtracted by the use of a control flow cell in line with the nucleic acid flow cell.
A typical sensorgram has three phases: an association phase, an equilibrium phase and a dissociation phase (see FIG. 1). The rise in signal occurs as more peptide binds to the immobilized plasmid DNA until equilibrium conditions are reached. The height of the peak is directly proportional to the mass of peptide bound. If the flow continues with buffer containing no peptide, peptide begins to dissociate from the complex and the resonance signal is reduced. The sensorgram can be used to compute apparent rate constants for each of the three individual processes.
(1) dC/dt=ka [PF ] [Pmax -PB ]-kd [PB ]
Measurement of Binding Kinetics by Surface Plasmon Resonance
A 6 kilobase (kb) plasmid DNA (pRSVLuc) was biotinylated using photoactivatable biotin (Pierce and Warriner) as per manufacturer's instructions.
A sensor chip with immobilized streptavidin (SA5) was conditioned following manufacturer's instructions, i.e., three one-minute injections of 1 M NaCl: 50 mM NaOH followed by one 1 min injection of 0.5% SDS. Flow rate on the BlAcore sensing device was 20 μl per min, running buffer was phosphate buffered saline (PBS). Flow path was flow cells 1 and 2.
The flow path was switched to flow cell 2 only and the flow rate was reduced to 10 μl per minute. Biotinylated plasmid at a concentration of […] in 0.5M NaCl was injected for 3 mins.
Phosphate buffered saline was used as running buffer at a flow rate of 20 μl per minute. The flow path was over flow cells 1 and 2. Flow cell 1 was used as a reference cell. The experiments were carried out at a temperature of 25° C.
Peptides were injected at various concentrations for three minutes. The injection was followed by a 5 min dissociation phase before the injection port was washed. The sensor chip was regenerated by the injection of 2M NaCl for 1 min. If necessary, this injection was repeated to bring the response back down to baseline before the next peptide sample was injected.
The data was analysed using the methods described in the handbook (BIAevaluation 2.1. Software Handbook, Pharmacia Biosensor AB, Uppsala, Sweden).
Essentially the plots were evaluated as follows: The dissociation constant, kd, was determined first. A curve or family of curves (same NBC at different concentrations) were plotted as response (Y) versus time as Ln (Yo/Y) versus time. In the area where the Ln(Yo/Y) curve was linear, a fit of the default dissociation model [AB]=[A]+[B] was made. The association constant, ka, was then calculated by fitting the related association model on that part of the association curve where a plot of In(abs(dY/dt) versus time was linear. KD were approximated by dividing the calculated kd with the calculated ka.

cells = experiment: Transfection efficiency / activity of complexes (general statement); type: cell-based; conditions: related to affinity for nucleic acid
[2] = test system: KLN-205 squamous epithelial syngenic tumour cells; experiment: In vivo transfection of KLN-205 tumours in DBA2 mice by local injection of peptide/plasmid complexes (nitroreductase immunostaining); design: species or system mouse; conditions: 0.5 μg peptide/μg DNA, intratumoural injection
Protocol: A representative in via cell transfection system is transfection of tumor cells using a murine carcinoma model.
The murine carcinoma model DBA2 containing the squamous epithelial syngenic tumour cell line KLN-205 was prepared as described in the Examples. A transfecting complex was prepared using a solution of plasmid DNA encoding a reporter gene or, for example, nitroreductase and a selected NBC peptide 0.5 μg peptide/μg DNA, as described herein. Where desired, a conjugate peptide was added to the transfecting complex, at a concentration of 0.1-0.3 μg […] peptide/μg DNA.
Transfection efficiency may be determined in a number of ways, including assessing the effect of the reporter gene on the target tissue, or by quantitating the gene product. Below, tissues samples were obtained and nitroreductase gene expression was ascertained via staining of tissue sections.
The ability to transfect tumor cells in vivo in mice was tested using plasmid nucleic acid carrying the nitroreductase reporter gene condensed on each of the following peptides: NBC15, NBC8, NBC9, NBC11, NBC7.
DBA2--male mice, aged 5-10 weeks were injected subcutaneously in each flank with a squamous epithelial syngenic tumour cell line KLN-205. The cell line was grown up in 175 ml T-flasks in standard EMEM medium containing 10% foetal calf serum. When the cells reached a density of 4×10^6 they were suspended by a standard trypsinization technique, washed in PBS and diluted to a final concentration of […].
The anaesthetic was Enflurane (Alynane; Anaquest, Ltd., Windlesham, Surrey UK): Ketamine (10% Ketaset, Willows Francis Veterinary, Cramley, West Sussex, UK); Rompun (2%, Bayer UK, Ltd., Suffolk, UK). For 10 ml anaesthetic mixture: 8.5 ml PBS; 1 ml Ketamine; 0.5 ml Rompun. Each animal was injected intra-peritoneally with 200 μl/animal using 1 ml syringe with 25 gauge needle. Once anaesthetized, the tumour is manipulated between the fingers lifting it slightly away from the animal's body and at the same time apply minimum pressure to the tumour. Using a 0.5 ml insulin needle the formulated delivery vehicle (a plasmid containing the E. coli nitroreductase gene condensed on a peptide at a ratio of 0.5 μg peptide/μg DNA) to be injected is taken up and the tumour is injected horizontally trying to avoid any visible blood vessels and necrotic or abnormal tissue. Daily monitoring is continued until the experiment is terminated.
7μ sections of frozen tumour tissue are prepared using standard methods and a Cryostat and air dried. Sections are fixed with freshly prepared 4% PFA/PBS for 30 mins at room temperature and then washed twice with 0.01% Tween-20/PBS 5 mins each wash. Sections are then immersed in 0.25% hydrogen peroxide/PBS, at room temperature (20C.) for 30 mins, and then washed three times in 0.01% Tween 20/PBS for 5 mins each wash. Sections are then permeabilised by treatment with ice cold 0.1 % TRITON X-100 for 5 mins, followed by a further two washes in 0.01% Tween-20/PBS 5mins each wash. The sections are then blocked with 5% NGS/PBS 60mins at room temperature in a wetbox. After decanting the blocking solution, 0.5 ml diluted antiserum/slide (1:400 in 2.5% NGS) is added and the sections incubated for 60 mins at room temperature. Slides are then washed three times in 0.01% Tween-20/PBS 5 mins each wash. Secondary antibody (0.5 ml) from ABC Elite Vector stain kit is added as follows and incubated 30 mins at room temperature in a wetbox.
The tumour is a murine syngenic squamous carcinoma produced by subcutaneous injection of KLN205 cells. When the tumours were approximately 4 mm in diameter they were injected with 20 μl of plasmid DNA formulated with the NBC15 peptide. After 48 h the tumours were excised and sectioned by standard histological techniques and immunostained for expression of the transgene (E. coli nitroreductase). […] In this case the tumours were injected with the same plasmid formulated in 0.5 μg NBC9 peptide/μg DNA.

Substance | ka [1] | kd [1] | rank in order of relative transfection efficiency (most to least efficient) (Jurkat cell line) | other results
H-TKKKKKKKKKKKKKKKKKKC-OH [NBC14] | 211000 M⁻¹ s⁻¹ | 0.00075 s⁻¹ |  | transfection compared with polydisperse poly-L-lysine (Jurkat cell line; luciferase): significantly better transfection agents than the polydisperse poly-L-lysine
NH2-KKSPKKAKKPAAKKSPKKAKKPAAKKSPKKAKKPAAKKSPKKAKKPAYC(Acm)-COOH (H-KKSPKKAKKPAAKKSPKKAKKPAAKKSPKKAKKPAAKKSPKKAKKPAYC(Acm)-OH) [NBC10] | 219000 M⁻¹ s⁻¹ | 0.0011 s⁻¹ |  | apparent dissociation constant kd ([1]; approximate values): approximately 1×10^-3 sec^-1; Kd ([1]; approximate values, read-out: equilibrium dissociation constant KD): ~5 nM; transfection efficiency (cells): not completely deleterious to transfection
NH2-KKSPKKAKKPAAKKSPKKAKKPAAKKSPKKAKKPAYC(Acm)-COOH (H-KKSPKKAKKPAAKKSPKKAKKPAAKKSPKKAKKPAYC(Acm)-OH; SMILES CC(=O)NCSC[C@H](NC(=O)[C@H](Cc1ccc(O)cc1)NC(=O)[C@H](C)NC(=O)[C@@H]1CCCN1C(=O)[C@H](CCCCN)NC(=O)[C@H](CCCCN)NC(=O)[C@H](C)NC(=O)[C@H](CCCCN)NC(=O)[C@H](CCCCN)NC(=O)[C@@H]1CCCN1C(=O)[C@H](CO)NC(=O)[C@H](CCCCN)NC(=O)[C@H](CCCCN)NC(=O)[C@H](C)NC(=O)[C@H](C)NC(=O)[C@@H]1CCCN1C(=O)[C@H](CCCCN)NC(=O)[C@H](CCCCN)NC(=O)[C@H](C)NC(=O)[C@H](CCCCN)NC(=O)[C@H](CCCCN)NC(=O)[C@@H]1CCCN1C(=O)[C@H](CO)NC(=O)[C@H](CCCCN)NC(=O)[C@H](CCCCN)NC(=O)[C@H](C)NC(=O)[C@H](C)NC(=O)[C@@H]1CCCN1C(=O)[C@H](CCCCN)NC(=O)[C@H](CCCCN)NC(=O)[C@H](C)NC(=O)[C@H](CCCCN)NC(=O)[C@H](CCCCN)NC(=O)[C@@H]1CCCN1C(=O)[C@H](CO)NC(=O)[C@H](CCCCN)NC(=O)[C@@H](N)CCCCN)C(=O)O) [NBC13] |  |  | NBC11>NBC13>NBC8>>NBC15>>>polylysine | 
poly-lysine [reference compound] |  |  | NBC11>NBC13>NBC8>>NBC15>>>polylysine | ranking by numbers of transfected tumor cells (most to least efficient) [2]: NBC15>NBC8, NBC9, NBC11>NBC7>>>poly-lysine; number of transfected tumor cells / level of transfection ([2]; 48 h, nitroreductase immunostaining): the fewest number of transfected tumor cells
